In US20040127739A1, “Novel n-p-propargyloxyphenethyl-thioacetic acid amides” (priority 2001, published 2004):

Experiments:
Assay type in all cases: in vivo
Phytophthora [1] = test: Action against Phytophthora on potato plants (residual-protective / systemic); settings: potato plants (Bintje variety), untreated plants showed pathogen attack of 80% to 100%, read-out: inhibition of fungal infestations
Protocol: Action Against Phytophthora on Potato Plants
(§1) a) Residual-protective Action
(§2) 2-3 week old potato plants (Bintje variety) are sprayed with a spray mixture (0.02% active ingredient) prepared from a wettable powder formulation of the test compound. After 48 hours, the treated plants are infected with a sporangia suspension of the fungus. Fungus infestation is evaluated after incubation of the infected plants for 4 days at 90-100% relative humidity and +20° C.
as §2, with “watered” for “sprayed”, “ingredient based on the volume of the soil)” for “ingredient)”, “compound. […]” for “compound.”

Plasmopara viticola = test: Action against Plasmopara viticola on vines (residual-protective / residual-curative); settings: vine seedlings, untreated plants showed pathogen attack of 80% to 100%, read-out: inhibition of fungal infestations
Protocol: Action Against Plasmopara viticola on Vines a) Residual-protective Action
Vine seedlings are sprayed at the 4- to 5-leaf stage with a spray mixture (0.02% active ingredient) prepared from a wettable powder formulation of the test compound. After 24 hours, the treated plants are infected with a sporangia suspension of the fungus. Fungus infestation is evaluated after incubation for 6 days at 95-100% relative humidity and +20° C. […]
b) Residual-curative Action
Vine seedlings are infected at the 4- to 5-leaf stage with a sporangia suspension of the fungus. After incubation for 24 hours in a humidity chamber at 95-100% relative humidity and +20° C., the infected plants are dried and sprayed with a spray mixture (0.02% active ingredient) prepared from a wettable powder formulation of the test compound. After the spray coating has dried, the treated plants are placed in the humidity chamber again. Fungus infestation is evaluated 6 days after infection.

Phytophthora [2] = test: Action against Phytophthora on tomato plants (residual-protective / systemic); settings: untreated plants showed pathogen attack of 80% to 100%, read-out: inhibition of fungal infestations
Protocol: Action Against Phytophthora on Tomato Plants
as §1
(§3) After a cultivation period of 3 weeks, tomato plants are sprayed with a spray mixture (0.02% active ingredient) prepared from a wettable powder formulation of the test compound. After 48 hours, the treated plants are infected with a sporangia suspension of the fungus. Fungus infestation is evaluated after incubation of the infected plants for 5 days at 90-100% relative humidity and +20° C.
as §3, with “watered” for “sprayed”, “ingredient based on the volume of the soil)” for “ingredient)”, “compound. […]” for “compound.”, “96” for “48”, “4” for “5”

| SMILES | inhibition at 200 ppm (Phytophthora [1]) [%] | inhibition at 200 ppm (Plasmopara viticola) [%] | inhibition at 200 ppm (Phytophthora [2]) [%] |
| --- | --- | --- | --- |
| C#CCOc1ccc(CCNC(=S)C(OCC#C)c2ccc(Cl)cc2)cc1OC (stereo not shown) [Compound A1.01, 2-(4-Chloro-phenyl)-N-[2-(3-methoxy-4-prop-2-ynyloxy-phenyl)-ethyl]-2-(prop-2-ynyloxy)-thioacetamide] | 80 to 100 | 80 to 100 | 80 to 100 |
| C#CCOc1ccc(CCNC(=S)C(OCC#C)c2ccc(Br)cc2)cc1OC (stereo not shown) [Compound A1.02, 2-(4-bromo-phenyl)-N-[2-(3-methoxy-4-prop-2-ynyloxy-phenyl)-ethyl]-2-(prop-2-ynyloxy)-thioacetamide] | 80 to 100 | 80 to 100 | 80 to 100 |
| C#CCOc1ccc(CCNC(=S)C(OC(C)=O)c2ccc(Cl)cc2)cc1OC (stereo not shown) [Compound A1.03, 2-acetoxy-2-(4-chloro-phenyl)-N-[2-(3-methoxy-4-prop-2-ynyloxy-phenyl)-ethyl]-thioacetamide] | 80 to 100 | 80 to 100 | 80 to 100 |
| C#CCOc1ccc(CCNC(=S)C(OC(C)=O)c2ccc(Br)cc2)cc1OC (stereo not shown) [Compound A1.04, 2-acetoxy-2-(4-bromo-phenyl)-N-[2-(3-methoxy-4-prop-2-ynyloxy-phenyl)-ethyl]-thioacetamide] | 80 to 100 |  |  |
| C#CCOc1ccc(CCNC(=S)C(O)c2ccc(Cl)cc2)cc1OC (stereo not shown) [Compound A2.01, 2-(4-Chloro-phenyl)-2-hydroxy-N-[2-(3-methoxy-4-prop-2-ynyloxy-phenyl)-ethyl]-thioacetamide] | 80 to 100 | 80 to 100 | 80 to 100 |
| C#CCOc1ccc(CCNC(=S)C(O)c2ccc(Br)cc2)cc1OC (stereo not shown) [Compound A2.02, 2-(4-bromo-phenyl)-2-hydroxy-N-[2-(3-methoxy-4-prop-2-ynyloxy-phenyl)-ethyl]-thioacetamide] | 80 to 100 | 80 to 100 | 80 to 100 |
